“And” between values parts separate entries of the source, which are not always exact repeats. Equal values may be shown once.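 Exposure lasted 48 hours, with cells grown in 96-well plates and compounds tested at five concentrations. GI50 = concentration required for 50% inhibition of growth. Definition used: TGI = concentration required for complete inhibition of growth.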
How the values were obtained:
Assay in all cases: NCI tumour cell line growth inhibition, 48 h
786-0 renal = test system: 786-0 renal
A498 renal = test system: A498 renal
A549 NSCLC = test system: A549 NSCLC
ACHN renal = test system: ACHN renal
BT-549 breast = test system: BT-549 breast
CAKI-1 renal = test system: CAKI-1 renal
CCRF-CEM leukemia = test system: CCRF-CEM leukemia
COLO 205 colon = test system: COLO 205 colon
DU-145 prostate = test system: DU-145 prostate
EKVX NSCLC = test system: EKVX NSCLC
HCC-2998 colon = test system: HCC-2998 colon
HCT-116 colon = test system: HCT-116 colon
HCT-15 colon = test system: HCT-15 colon
HL-60(TB) leukemia = test system: HL-60(TB) leukemia
HOP-62 NSCLC = test system: HOP-62 NSCLC
HOP-92 NSCLC = test system: HOP-92 NSCLC
HS 578T breast = test system: HS 578T breast
HT29 colon = test system: HT29 colon
IGROV1 ovarian = test system: IGROV1 ovarian
K-562 leukemia = test system: K-562 leukemia
KM12 colon = test system: KM12 colon
LOX IMVI melanoma = test system: LOX IMVI melanoma
M14 melanoma = test system: M14 melanoma
MALME-3M melanoma = test system: MALME-3M melanoma
MCF7 breast = test system: MCF7 breast
MDA-MB-231 breast = test system: MDA-MB-231 breast
MDA-MB-435 = test system: MDA-MB-435
MOLT-4 leukemia = test system: MOLT-4 leukemia
NCI-H226 lung = test system: NCI-H226 lung
NCI-H23 lung = test system: NCI-H23 lung
NCI-H460 lung = test system: NCI-H460 lung
NCI-H522 lung = test system: NCI-H522 lung
NCI/ADR-RES ovarian = test system: NCI/ADR-RES ovarian
OVCAR-3 ovarian = test system: OVCAR-3 ovarian
OVCAR-4 ovarian = test system: OVCAR-4 ovarian
OVCAR-5 ovarian = test system: OVCAR-5 ovarian
OVCAR-8 ovarian = test system: OVCAR-8 ovarian
PC-3 prostate = test system: PC-3 prostate
RPMI-8226 leukemia = test system: RPMI-8226 leukemia
RXF 393 renal = test system: RXF 393 renal
SF-268 CNS = test system: SF-268 CNS
SF-295 CNS = test system: SF-295 CNS
SF-539 CNS = test system: SF-539 CNS
SK-MEL-2 melanoma = test system: SK-MEL-2 melanoma
SK-MEL-28 melanoma = test system: SK-MEL-28 melanoma
SK-MEL-5 melanoma = test system: SK-MEL-5 melanoma
SK-OV-3 ovarian = test system: SK-OV-3 ovarian
SN12C renal = test system: SN12C renal
SNB-19 CNS = test system: SNB-19 CNS
SNB-75 CNS = test system: SNB-75 CNS
SR leukemia = test system: SR leukemia
SW-620 colon = test system: SW-620 colon
T-47D breast = test system: T-47D breast
TK-10 renal = test system: TK-10 renal
U251 CNS = test system: U251 CNS
UACC-257 melanoma = test system: UACC-257 melanoma
UACC-62 melanoma = test system: UACC-62 melanoma
UO-31 renal = test system: UO-31 renal

CC(=O)O[C@H]1C[C@H](O[C@H]2[C@@H](O)C[C@H](O[C@H]3[C@@H](O)C[C@H](O[C@H]4CC[C@@]5(C)C(CCC6C5C[C@@H](O)[C@]5(C)[C@@H](C7=CC(=O)OC7)CC[C@]65O)C4)O[C@@H]3C)O[C@@H]2C)O[C@H](C)[C@H]1O[C@@H]1O[C@H](CO)[C@@H](O)[C@H](O)[C@H]1O (some centres undefined)
GI50 (786-0 renal): 25.1 nM and 105 nM
TGI (786-0 renal): 89.4 nM and 223 nM
GI50 (A498 renal): 78 nM
TGI (A498 renal): 412 nM
GI50 (A549 NSCLC): 9.03 nM and 31.9 nM
TGI (A549 NSCLC): 16.5 nM and 108 nM
GI50 (ACHN renal): 20.4 nM and 44 nM
TGI (ACHN renal): 69 nM and 179 nM
GI50 (BT-549 breast): 39.4 nM
TGI (BT-549 breast): 129 nM
GI50 (CAKI-1 renal): 29.4 nM and 81.3 nM
TGI (CAKI-1 renal): 183 nM and 345 nM
GI50 (CCRF-CEM leukemia): 17.3 nM and 33.3 nM
TGI (CCRF-CEM leukemia): 49.7 nM and 180 nM
GI50 (COLO 205 colon): 284 nM
TGI (COLO 205 colon): 676 nM
GI50 (DU-145 prostate): 13.8 nM and 110 nM
TGI (DU-145 prostate): 38.7 nM and 232 nM
GI50 (EKVX NSCLC): 22.4 nM and 56.6 nM
TGI (EKVX NSCLC): 83.6 nM and 202 nM
GI50 (HCC-2998 colon): 73 nM and 242 nM
TGI (HCC-2998 colon): 210 nM and 678 nM
GI50 (HCT-116 colon): 18.2 nM and 39.4 nM
TGI (HCT-116 colon): 64 nM and 134 nM
GI50 (HCT-15 colon): 58.7 nM and 200 nM
TGI (HCT-15 colon): 174 nM and 465 nM
GI50 (HL-60(TB) leukemia): 11.2 nM
TGI (HL-60(TB) leukemia): 28.3 nM
GI50 (HOP-62 NSCLC): 19.6 nM and 65.1 nM
TGI (HOP-62 NSCLC): 69.1 nM and 189 nM
GI50 (HOP-92 NSCLC): 78.1 nM and 158 nM
TGI (HOP-92 NSCLC): 243 nM and 612 nM
TGI (HS 578T breast): 1640 nM
GI50 (HT29 colon): 24.6 nM and 120 nM
TGI (HT29 colon): 86.8 nM and 395 nM
GI50 (IGROV1 ovarian): 68.5 nM and 229 nM
TGI (IGROV1 ovarian): 1370 nM and 1310 nM
GI50 (K-562 leukemia): 27.2 nM
TGI (K-562 leukemia): 204 nM
GI50 (KM12 colon): 31.9 nM and 161 nM
TGI (KM12 colon): 140 nM and 382 nM
GI50 (LOX IMVI melanoma): 26.1 nM and 81.8 nM
TGI (LOX IMVI melanoma): 93.7 nM and 238 nM
GI50 (M14 melanoma): 103 nM and 212 nM
TGI (M14 melanoma): 244 nM and 399 nM
GI50 (MALME-3M melanoma): 21.7 nM and 183 nM
TGI (MALME-3M melanoma): 130 nM and 469 nM
GI50 (MCF7 breast): 24.8 nM and 57.5 nM
TGI (MCF7 breast): 189 nM and 694 nM
GI50 (MDA-MB-231 breast): 238 nM and 234 nM
TGI (MDA-MB-231 breast): 1350 nM and 652 nM
GI50 (MDA-MB-435): 110 nM and 275 nM
TGI (MDA-MB-435): 307 nM and 893 nM
GI50 (MOLT-4 leukemia): 11.7 nM and 25.7 nM
TGI (MOLT-4 leukemia): 28.8 nM and 65.6 nM
GI50 (NCI-H226 lung): 174 nM
TGI (NCI-H226 lung): 314 nM
GI50 (NCI-H23 lung): 15.1 nM and 46.8 nM
TGI (NCI-H23 lung): 58.6 nM and 206 nM
GI50 (NCI-H460 lung): 16.5 nM and 34.5 nM
TGI (NCI-H460 lung): 55.7 nM and 135 nM
GI50 (NCI-H522 lung): 10.7 nM and 37.5 nM
TGI (NCI-H522 lung): 37.6 nM and 126 nM
GI50 (NCI/ADR-RES ovarian): 23.3 nM and 76.4 nM
TGI (NCI/ADR-RES ovarian): 86.1 nM and 250 nM
GI50 (OVCAR-3 ovarian): 18.6 nM and 93.2 nM
TGI (OVCAR-3 ovarian): 65.6 nM and 218 nM
GI50 (OVCAR-4 ovarian): 122 nM
TGI (OVCAR-4 ovarian): 442 nM
GI50 (OVCAR-5 ovarian): 65.8 nM and 175 nM
TGI (OVCAR-5 ovarian): 140 nM and 327 nM
GI50 (OVCAR-8 ovarian): 38.5 nM and 159 nM
TGI (OVCAR-8 ovarian): 104 nM and 385 nM
GI50 (PC-3 prostate): 28.7 nM and 103 nM
TGI (PC-3 prostate): 225 nM and 590 nM
GI50 (RPMI-8226 leukemia): 68.2 nM and 200 nM
TGI (RPMI-8226 leukemia): 315 nM and 955 nM
GI50 (RXF 393 renal): 15.8 nM and 63.6 nM
TGI (RXF 393 renal): 63.6 nM and 385 nM
GI50 (SF-268 CNS): 18.5 nM and 51.1 nM
TGI (SF-268 CNS): 73.7 nM and 165 nM
GI50 (SF-295 CNS): 26.8 nM and 73.7 nM
TGI (SF-295 CNS): 286 nM and 581 nM
GI50 (SF-539 CNS): 21.7 nM and 105 nM
TGI (SF-539 CNS): 78.3 nM and 225 nM
GI50 (SK-MEL-2 melanoma): 315 nM
TGI (SK-MEL-2 melanoma): 1000 nM
GI50 (SK-MEL-28 melanoma): 115 nM and 215 nM
TGI (SK-MEL-28 melanoma): 237 nM and 496 nM
GI50 (SK-MEL-5 melanoma): 18.7 nM and 109 nM
TGI (SK-MEL-5 melanoma): 69.9 nM and 233 nM
GI50 (SK-OV-3 ovarian): 28.7 nM and 160 nM
TGI (SK-OV-3 ovarian): 99.6 nM and 314 nM
GI50 (SN12C renal): 20 nM and 47.1 nM
TGI (SN12C renal): 581 nM and 413 nM
GI50 (SNB-19 CNS): 69.2 nM and 212 nM
TGI (SNB-19 CNS): 256 nM and 557 nM
GI50 (SNB-75 CNS): 57.7 nM and 138 nM
TGI (SNB-75 CNS): 147 nM and 304 nM
GI50 (SR leukemia): 15.1 nM and 44 nM
TGI (SR leukemia): 97.7 nM and 281 nM
GI50 (SW-620 colon): 23.8 nM and 63.1 nM
TGI (SW-620 colon): 86 nM and 302 nM
GI50 (T-47D breast): 22.8 nM and 166 nM
TGI (T-47D breast): 167 nM and 576 nM
GI50 (TK-10 renal): 14.6 nM and 145 nM
GI50 (U251 CNS): 29.8 nM and 113 nM
TGI (U251 CNS): 91 nM and 234 nM
GI50 (UACC-257 melanoma): 85.2 nM and 347 nM
TGI (UACC-257 melanoma): 162 nM and 1180 nM
GI50 (UACC-62 melanoma): 93.8 nM and 173 nM
TGI (UACC-62 melanoma): 196 nM and 343 nM
GI50 (UO-31 renal): 64.8 nM and 179 nM
TGI (UO-31 renal): 237 nM and 343 nM
